In patent US10722593B2, “Anti-cancer compounds and conjugates thereof” (SIRENAS LLC, priority 2015, dated 2020):
Square brackets hold non-standard residues; d marks the D form. Peptide text beside a SMILES is read from it. * marks the point of attachment. Dolaproine = CO[C@@H]([C@@H]1CCCN1)[C@@H](C)C(=O)O; Dil = CC[C@H](C)[C@H](NC)[C@@H](CC(=O)O)OC; dVal(3-OH) = CC(C)(O)[C@@H](N)C(=O)O; Val(3-OH) = CC(C)(O)[C@H](N)C(=O)O; Doe = c1ccc(C[C@H](N*)c2nccs2)cc1; X1 = C[C@@H](N*)[C@@H](O)c1ccccc1; NMeV = CN[C@H](C(=O)O)C(C)C; NMeAib = CNC(C)(C)C(=O)O; Aib = CC(C)(N)C(=O)O

How the values were obtained:
Format in all cases: cell-based
[1] = system: MES-SA (human uterine sarcoma) cells; test: Inhibitory response against MES-SA cells (Cell Titer-Glo); settings: 72 hours of culture, inhibition of cell growth
Protocol: (§1) MES-SA (human uterine sarcoma) cells were seeded in a clear polystyrene 96-well microculture plate (Corning® Costar® 96-well flat bottom plate, Cat. #3997) in a total volume of 90 μL/well. After 24 hours of incubation in a humidified incubator at 37° C. with 5% CO2 and 95% air, 10 μL of 10×, serially diluted test agents in growth medium were added to each well (10 pt dose response curve, highest concentration 10 μM of test agent). After 72 hours of culture in a humidified incubator at 37° C., in an atmosphere of 5% CO2 and 95% air, the plated cells and Cell Titer-Glo® (Promega G7571) reagents were brought to room temperature to equilibrate for 30 minutes. 100 μL of Cell Titer-Glo® reagent was added to each well. The plate was shaken for two minutes and then left to equilibrate for ten minutes. The media/Cell Titer-Glo® reagent was transferred to a white polystyrene 96-well microculture plate (Corning® Costar® 96-well flat bottom plate, Cat. #3917) before reading luminescence on a Tecan GENios microplate reader.
Percent inhibition of cell growth is calculated relative to untreated control wells. The IC50 value for the test agents is determined using Prism 6.05 by curve-fitting of the data using the following four parameter-logistic equation:
(§2) [formula] where Top is the maximal % of control absorbance, Bottom is the minimal % of control absorbance at the highest agent concentration, Y is the % of control absorbance, X is the agent concentration, IC50 is the concentration of agent that inhibits cell growth by 50% compared to the control cells, and n is the slope of the curve.

[2] = system: MES-SA/Dx (multidrug-resistant human uterine sarcoma) cells; test: Inhibitory response against MES-SA/Dx cells (Cell Titer-Glo); settings: 72 hours of culture, inhibition of cell growth
Protocol: MES-SA/Dx (multidrug-resistant human uterine sarcoma) cells are seeded in a clear polystyrene 96-well microculture plate in a total volume of 90 μL/well. After 24 hours of incubation in a humidified incubator at 37° C. with 5% CO2 and 95% air, 10 μL of 10×, serially diluted test agents in growth medium are added to each well. After 72 hours of culture in a humidified incubator at 37° C., in an atmosphere of 5% CO2 and 95% air, the plated cells and Cell Titer-Glo® (Promega G7571) reagents are brought to room temperature to equilibrate for 30 minutes. 100 μL of Cell Titer-Glo® reagent are added to each well. The plate is shaken for two minutes and then left to equilibrate for ten minutes. The media/Cell Titer-Glo® reagent is transferred to a polystyrene 96-well microculture plate before reading luminescence on a Tecan GENios microplate reader.
Percent inhibition of cell growth is calculated relative to untreated control wells. The IC50 value for the test agents is determined using Prism 6.05 by curve-fitting of the data using the following four parameter-logistic equation: […]

[3] = system: BT-474 human mammary gland ductal carcinoma cells; test: Inhibitory response against BT-474 cells (Cell Titer-Glo); settings: 72 hours of culture, inhibition of cell growth
Protocol: as §1, with “BT-474 human mammary gland ductal carcinoma” for “MES-SA (human uterine sarcoma)”, “[…]” for “μM”
(§3) Percent inhibition of cell growth was calculated relative to untreated control wells. The IC50 value for the test agents was determined using Prism 6.05 by curve-fitting of the data using the following four parameter-logistic equation:
as §2

HCC1954 cells = test: Inhibitory response against HCC1954 cells (method analogous to BT-474); settings: Homo sapiens, inhibition of cell growth
Protocol: as §1, with “BT-474 human mammary gland ductal carcinoma” for “MES-SA (human uterine sarcoma)”, “[…]” for “μM”
as §3, §2
Inhibitory response of test compounds against HCC1954 cells was determined using a method analogous to that used for BT-474 cells.

**Q.** With `CC[C@H](C)[C@@H]([C@@H](CC(=O)N1CCC[C@H]1[C@H](OC)[C@@H](C)C(=O)N[C@@H](Cc1ccccc1)c1nccs1)OC)N(C)C(=O)[C@@H](NC(=O)[C@H](C(C)C)N(C)C)C(C)(C)O` [Compound 101] as the compound, how does the IC50 [1] read?
**A.** 0.035 nM

**Q.** And the IC50 [2]?
**A.** 6.37 nM

**Q.** What about the IC50 [3] of the same compound?
**A.** 0.0022 nM

**Q.** And the IC50 (HCC1954 cells)?
**A.** 0.004 nM

**Q.** How did the IC50 [3] turn out when `CC[C@H](C)[C@@H]([C@@H](CC(=O)N1CCC[C@H]1[C@H](OC)[C@@H](C)C(=O)N[C@@H](Cc1ccccc1)c1nccs1)OC)N(C)C(=O)[C@@H](NC(=O)C(C)(C)NC)C(C)(C)O` [Compound 107] (H-[NMeAib][Val(3-OH)][Dil][Dolaproine]-Doe) was run?
**A.** 0.064 nM

**Q.** And the IC50 (HCC1954 cells)?
**A.** 0.03 nM

**Q.** `CC[C@H](C)[C@@H]([C@@H](CC(=O)N1CCC[C@H]1[C@H](OC)[C@@H](C)C(=O)N[C@H](C)[C@@H](O)c1ccccc1)OC)N(C)C(=O)[C@@H](NC(=O)[C@H](C(C)C)N(C)C)C(C)(C)O` [Compound 108] was tested. Which IC50 [3] did it give?
**A.** 0.14 nM

**Q.** What about the IC50 (HCC1954 cells) of the same compound?
**A.** 0.46 nM

**Q.** `CC[C@H](C)[C@@H]([C@@H](CC(=O)N1CCC[C@H]1[C@H](OC)[C@@H](C)C(=O)N[C@H](C)[C@@H](O)c1ccccc1)OC)N(C)C(=O)[C@@H](NC(=O)[C@@H](NC)C(C)C)C(C)(C)O` [Compound 109] (H-[NMeV][Val(3-OH)][Dil][Dolaproine]-X1) was tested. Which IC50 [1] did it give?
**A.** 14.9 nM

**Q.** And the IC50 [3]?
**A.** 26.1 nM

**Q.** What about the IC50 (HCC1954 cells) of the same compound?
**A.** 10.9 nM

**Q.** With `CC[C@H](C)[C@@H]([C@@H](CC(=O)N1CCC[C@H]1[C@H](OC)[C@@H](C)C(=O)N[C@H](C)[C@@H](O)c1ccccc1)OC)N(C)C(=O)[C@@H](NC(=O)C(C)(C)NC)C(C)(C)O` [Compound 110] (H-[NMeAib][Val(3-OH)][Dil][Dolaproine]-X1) as the compound, how does the IC50 [1] read?
**A.** 4.18 nM

**Q.** And the IC50 [3]?
**A.** 9.09 nM

**Q.** And the IC50 (HCC1954 cells)?
**A.** 2.92 nM

**Q.** What does the source list for `CC[C@H](C)[C@@H]([C@@H](CC(=O)N1CCC[C@H]1[C@H](OC)[C@@H](C)C(=O)N[C@@H](Cc1ccccc1)c1nccs1)OC)N(C)C(=O)[C@H](CSC)NC(=O)C(C)(C)NC` [Compound 111] (H-[NMeAib]C(Me)[Dil][Dolaproine]-Doe)?
**A.** IC50 [3]: 0.863 nM; IC50 (HCC1954 cells): 0.0656 nM

**Q.** What does the source list for `CC[C@H](C)[C@@H]([C@@H](CC(=O)N1CCC[C@H]1[C@H](OC)[C@@H](C)C(=O)N[C@@H](Cc1ccccc1)c1nccs1)OC)N(C)C(=O)[C@@H](NC(=O)C(C)(C)N)C(C)(C)O` [Compound 113] (H-[Aib][Val(3-OH)][Dil][Dolaproine]-Doe)?
**A.** IC50 [3]: 1.22 nM; IC50 (HCC1954 cells): 1.24 nM

**Q.** What does the source list for `CC[C@H](C)[C@@H]([C@@H](CC(=O)N1CCC[C@H]1[C@H](OC)[C@@H](C)C(=O)N[C@@H](Cc1ccccc1)c1nccs1)OC)N(C)C(=O)[C@H](NC(=O)C(C)(C)NC)C(C)(C)O` [Compound 114] (H-[NMeAib][dVal(3-OH)][Dil][Dolaproine]-Doe)?
**A.** IC50 [3]: 0.0616 nM; IC50 (HCC1954 cells): 0.017 nM
